Values of other authors in patent EP1362518A1, “Food product providing sustained blood levels of exogenous substances” (NESTEC S.A., priority 2002, dated 2003).

Columns and labels:
dogs = conditions: 100mg/kg/d (caffeine/body weight/day) consumed for more than 3 days
[1] = not given; remark: listed apart in the source

Cn1c(=O)c2c(ncn2C)n(C)c1=O [caffeine]
threshold value for stimulation (in vivo): about 2 mg/l blood plasma
threshold value of stimulation (in vivo): about 2 mg/l plasma
upper end of the desired range (side effects above this range): about 20 mg/l blood plasma
death (dogs): death can occur
half-life of caffeine ([1]; adults): 3 to 7 h
time of peak in caffeine level in blood ([1]; after consumption of a cup of coffee): about an hour
